Measured values from US20110275707A1, “SUBSTITUTED AFPO (6-ARYL-4H-FURO[3,2-C]PYRAN-4-ONE) DERIVATIVES AS ANTI-CANCER AGENTS” (priority 2008, published 2011).

Tested on: SK-BR-3 (HER2+) human tumor cell line
Assay: Cell growth inhibition assay (SRB), SK-BR-3
Assay type: cell-based
Conditions: SK-BR-3, compared with 1
Protocol: Cell Growth Inhibition Assay. All stock cultures are grown in T-25 flasks. Freshly trypsinized cell suspensions were seeded in 96-well microliter plates with compounds added from DMSO-diluted stock. The plates were incubated for an additional 72 h after attachment and drug addition, and the assay was terminated by 10% TCA. Then, 0.4% SRB dye in 1% HOAc was added to stain the cells for 10 minutes. Unbound dye was removed by repeated washing with 1% HOAc and the plates were air dried. Bound stain was subsequently solved with 10 mM trizma base, and the absorbance read at 515 nm. Growth inhibition of 50% (GI50) is calculated as the drug concentration, which caused a 50% reduction in the net protein increase in control cells during the drug incubation. The mean ED50 is the concentration of agent that reduces cell growth by 50% under the experimental conditions and is the average from at least two independent determinations. Variation between replicates was no more than 5% of the mean. The following human tumor cell lines were used in the assay: A549 (non small cell lung cancer), ZR-75-1 (estrogen receptor positive breast cancer), MDA MB-231 (estrogen receptor negative breast cancer), SKBR-3 (estrogen receptor negative, HER-2 over-expressing breast cancer), KB (nasopharyngeal carcinoma), KB-VIN (vincristine-resistant KB subline). […]

Compound	potency against SK-BR-3 relative to 1
COc1cc(OC)cc(-c2cc3occ(C)c3c(=O)o2)c1 [Compound 25, 6-(3,5-Dimethoxyphenyl)-3-methyl-4H-furo[3,2-c]pyran-4-one]	approximately threefold

Tested on: not given
Assay: not given
Conditions: not given

melting point [°C]	Compound
239 to 241	Cc1coc2cc(-c3cccc(O)c3O)oc(=O)c12 [Compound 20, 6-(2,3-Dihydroxyphenyl)-3-methyl-4H-furo[3,2-c]pyran-4-one]
182 to 184	Cc1ccc(-c2cc3occ(C)c3c(=O)o2)cc1C [Compound 21, 6-(3,4-Dimethylphenyl)-3-methyl-4H-furo[3,2-c]pyran-4-one]
154 to 156	COc1ccc(-c2cc3occ(C)c3c(=O)o2)cc1OC [Compound 22, 6-(3,4-Dimethoxyphenyl)-3-methyl-4H-furo[3,2-c]pyran-4-one]
259 to 261	Cc1coc2cc(-c3ccc(O)c(O)c3)oc(=O)c12 [Compound 23, 6-(3,4-Dihydroxyphenyl)-3-methyl-4H-furo[3,2-c]pyran-4-one]
171 to 173	Cc1cc(C)cc(-c2cc3occ(C)c3c(=O)o2)c1 [Compound 24, 6-(3,5-Dimethylphenyl)-3-methyl-4H-furo[3,2-c]pyran-4-one]
153 to 155	COc1cc(OC)cc(-c2cc3occ(C)c3c(=O)o2)c1 [Compound 25, 6-(3,5-Dimethoxyphenyl)-3-methyl-4H-furo[3,2-c]pyran-4-one]
> 300	Cc1coc2cc(-c3cc(O)cc(O)c3)oc(=O)c12 [Compound 26, 6-(3,5-Dihydroxyphenyl)-3-methyl-4H-furo[3,2-c]pyran-4-one]
201 to 203	COc1cc(-c2cc3occ(C)c3c(=O)o2)cc(OC)c1OC [Compound 27, 3-Methyl-6-(3,4,5-trimethoxyphenyl)-4H-furo[3,2-c]pyran-4-one]
131 to 133	CCc1coc2cc(-c3cc(OC)cc(OC)c3)oc(=O)c12 [Compound 28, 6-(3,5-Dimethoxyphenyl)-3-ethyl-4H-furo[3,2-c]pyran-4-one]
163 to 165	COc1cc(OC)cc(-c2cc3oc(C)c(C)c3c(=O)o2)c1 [Compound 29, 6-(3,5-Dimethoxyphenyl)-2,3-dimethyl-4H-furo[3,2-c]pyran-4-one]
147 to 149	COc1cc(OC)cc(-c2cc3occ(C)c3c(=S)o2)c1 [Compound 30, 6-(3,5-Dimethoxyphenyl)-3-methyl-4H-furo[3,2-c]pyran-4-thione]

Continued, compound first:

Compound	melting point [°C]
Cc1coc2cc(-c3ccccc3)oc(=O)c12 [Compound 9, 3-Methyl-6-phenyl-4H-furo[3,2-c]pyran-4-one]	105 to 107
Cc1cccc(-c2cc3occ(C)c3c(=O)o2)c1 [Compound 10, 3-Methyl-6-m-tolyl-4H-furo[3,2-c]pyran-4-one]	135 to 137
COc1cccc(-c2cc3occ(C)c3c(=O)o2)c1 [Compound 11, 6-(3-Methoxyphenyl)-3-methyl-4H-furo[3,2-c]pyran-4-one]	119 to 121
CCOc1cccc(-c2cc3occ(C)c3c(=O)o2)c1 [Compound 12, 6-(3-Ethoxyphenyl)-3-methyl-4H-furo[3,2-c]pyran-4-one]	128 to 130
Cc1coc2cc(-c3cccc(O)c3)oc(=O)c12 [Compound 13, 6-(3-Hydroxyphenyl)-3-methyl-4H-furo[3,2-c]pyran-4-one]	225 to 227
Cc1coc2cc(-c3cccc(F)c3)oc(=O)c12 [Compound 14, 6-(3-Fluorophenyl)-3-methyl-4H-furo[3,2-c]pyran-4-one]	158 to 160
Cc1coc2cc(-c3ccc(F)cc3)oc(=O)c12 [Compound 15, 6-(4-Fluorophenyl)-3-methyl-4H-furo[3,2-c]pyran-4-one]	175 to 177
Cc1ccc(-c2cc3occ(C)c3c(=O)o2)cc1 [Compound 16, 3-Methyl-6-p-tolyl-4H-furo[3,2-c]pyran-4-one]	153 to 155
COc1ccc(-c2cc3occ(C)c3c(=O)o2)cc1 [Compound 17, 6-(4-Methoxyphenyl)-3-methyl-4H-furo[3,2-c]pyran-4-one]	146 to 148
Cc1coc2cc(-c3ccc(O)cc3)oc(=O)c12 [Compound 18, 6-(4-Hydroxyphenyl)-3-methyl-4H-furo[3,2-c]pyran-4-one]	258 to 260
COc1cccc(-c2cc3occ(C)c3c(=O)o2)c1OC [Compound 19, 6-(2,3-Dimethoxyphenyl)-3-methyl-4H-furo[3,2-c]pyran-4-one]	111 to 113
